Among the data in PubChem BioAssay (NCI) are GI50 and TGI values, retold here.

Each structure is given as a SMILES string. Values joined by “and” are separate entries in the source; they are usually repeats but may differ in a detail not shown here. Identical values can stand only once.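 Results reflect a 48-hour exposure of cells in 96-well plates to compound at five concentrations. The concentration for 50% growth inhibition is given as GI50. TGI marks complete inhibition of growth.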 Where a SMILES comes first, the peptide text is derived from it. Where only a bound is given, the exact number is not on record here.

Some test systems named below: BT-549 breast; MDA-N; HOP-18 NSCLC; DMS 114 small cell lung; LXFL 529 NSCLC; SNB-78 CNS; DLD-1 colon.
Holding throughout (assay): inhibition of tumour cell growth, NCI panel, 48 h

For `COc1cc(C2C3=C(COC3=O)Nc3c2ccc2c3CCCC2)cc2c1OCO2` (stereo not given), in the experiment on BT-549 breast, the GI50 is 0.118 µM and the TGI was 30.5 µM.

`CC(C)n1nc(-c2ccc3oc(N)nc3c2)c2c(N)ncnc21`: the GI50 in the experiment on BT-549 breast was less than 0.01 µM.

For the molecule `C/C(=N\NC(=S)N1CC2CCC(CC2)C1)c1cccc(C)n1`, the TGI with BT-549 breast came out at 10.3 µM; in the experiment with MDA-N it was 17.8 µM.

As to `C=CC1(NS(=O)(=O)c2ccc(C)cc2)CCC(C(C)(C)C)CC1` (stereo not given), the TGI in the experiment with HOP-18 NSCLC, with DMS 114 small cell lung, with LXFL 529 NSCLC, in the experiment on SNB-78 CNS and in the experiment with DLD-1 colon was more than 100 µM throughout.

In the case of `CC1=C(Cl)C=CP(=O)(OC(C)C)C1` (stereo not given), the TGI with HOP-18 NSCLC, in the experiment on DMS 114 small cell lung, with LXFL 529 NSCLC, with SNB-78 CNS and in the experiment with DLD-1 colon was more than 100 µM each time.

As for `C[C@]1(Cn2ccnn2)C(C(=O)O)N2C(=O)CC2S1(=O)=O` (stereo not given in full), in the experiment with BT-549 breast, the GI50 was more than 100 µM and the TGI was more than 100 µM.

Take `COc1ccc(-c2cc(-c3cc(Cl)cc(Br)c3O)[nH]c(=O)n2)cc1`: the TGI is 55.7 µM in the experiment with HOP-18 NSCLC; 38 µM in the experiment on DMS 114 small cell lung; 30 µM with LXFL 529 NSCLC; 64.2 µM in the experiment with SNB-78 CNS; 38.4 µM with DLD-1 colon.

For `CC(C)CC(Nc1c(O)ccc2ccccc12)C(=O)O` (stereo not given), the TGI in the experiment with BT-549 breast was 83.6 µM.

For `CCCCNC(=O)c1cc(NCc2cc(O)ccc2O)ccc1O`, in the experiment with BT-549 breast, the GI50 is 3.24 µM and the TGI is 13.5 µM.

As for `Cc1cc(C(=O)NC(CCC(=O)O)C(=O)O)sc1CCC1CNc2nc(N)[nH]c(=O)c2C1` (stereo not given), in the experiment on BT-549 breast, the GI50 was 0.37 µM and 2.39 µM; the TGI is more than 100 µM.

Consider `CCCNC(=O)c1ccc(Cl)cc1Cl`, for which, in the experiment with BT-549 breast, the GI50 is more than 100 µM and the TGI is more than 100 µM.

As to `COc1cc2ncnc(Nc3ccc4c(cnn4Cc4ccccc4)c3)c2cc1OC`, in the experiment with BT-549 breast, the GI50 is 16.5 µM and the TGI was more than 25 µM.

As to `Cc1cc(N2CCCC2)nc(NCc2cc(Nc3ccnc4cc(Cl)ccc34)ccc2F)n1`, in the experiment with BT-549 breast, the GI50 was 1.54 µM and the TGI came out at 3.3 µM.

As for `CC(/C=C/c1ccccc1)=N\NC(N)=S`, the TGI in the experiment with BT-549 breast and with MDA-N was more than 100 µM throughout.

On to `Cc1ccc(C2=C(c3ccccc3)C(c3ccccc3)Oc3ccc(C)cc32)cc1` (stereo not given), for which, in the experiment with BT-549 breast, the GI50 was 4.76 µM and the TGI was 20.4 µM.

Turning to `Oc1ccc(CCNCc2cc3c(cc2Br)OCO3)cc1`, the TGI with BT-549 breast and with MDA-N was more than 100 µM each time.

Turning to `Clc1ccc2nc(-c3ccccc3)nc(Cl)c2c1`, the TGI in the experiment on DMS 114 small cell lung, in the experiment with LXFL 529 NSCLC, with SNB-78 CNS and in the experiment with DLD-1 colon was more than 100 µM in each case.

Regarding `CCCCN[C@H]1C2C3CC4C5CC(C42)C1(C)C53` (stereo not given in full), the TGI in the experiment on HOP-18 NSCLC, with DMS 114 small cell lung, in the experiment on LXFL 529 NSCLC, with SNB-78 CNS and with DLD-1 colon was more than 100 µM each time.

`Cc1ccc(NC(=S)SCCC(=O)O)cc1`: the TGI with DMS 114 small cell lung, with LXFL 529 NSCLC and with SNB-78 CNS was more than 100 µM each time.

In the case of `CCC(=O)Nc1ccccc1C#C/C=C\C#Cc1ccccc1C(F)(F)F`, in the experiment on BT-549 breast, the GI50 was 2.21 µM and the TGI was determined as 32.5 µM.

As to `C/C=C/[C@H]1O[C@@H]2C(=C[C@H]1O)C(=O)O[C@H]2C`, in the experiment on BT-549 breast, the GI50 was 10.5 µM and the TGI was found to be 22.5 µM.

In the case of `O=S1(=O)CCCS(=O)(=O)C(c2ccccc2)=C1c1ccccc1`, the TGI in the experiment with HOP-18 NSCLC, in the experiment on DMS 114 small cell lung, in the experiment on LXFL 529 NSCLC, in the experiment with SNB-78 CNS and with DLD-1 colon was more than 100 µM throughout.

Turning to `CCC(C)C1NC(=O)C2CCCN2C(=O)CNC(=O)C(C)NC(=O)C(Cc2ccccc2)NC(=O)C(C(C)C)NC1=O` (stereo not given) (cyclo(GPIVFA); configuration not given here), the TGI in the experiment on HOP-18 NSCLC, in the experiment with DMS 114 small cell lung, with LXFL 529 NSCLC and in the experiment on DLD-1 colon was more than 100 µM throughout.

For `COCCN1CCN(Cc2ccc(-c3n[nH]c4c3C(=O)c3c(NC(=O)NN5CCOCC5)cccc3-4)cc2)CC1`, in the experiment with BT-549 breast, the GI50 was 0.0308 µM and the TGI worked out at 0.209 µM.

For the molecule `OCCNCCCOc1ccc2ncnc(Nc3ccc(Oc4cccc(C(F)(F)F)c4)c(Cl)c3)c2c1`, in the experiment with BT-549 breast, the GI50 was 1.82 µM and the TGI was found to be 4.25 µM.

With `NCCOc1ccccc1/C=C1\c2ccccc2-c2ccc([N+](=O)[O-])cc21`, in the experiment on BT-549 breast, the GI50 was 1.5 µM and the TGI is 2.84 µM.

For the molecule `Cc1[nH]nc2c1N=C(c1ccccc1F)c1cc(C(N)=O)ccc1N2`, in the experiment on BT-549 breast, the GI50 is 2.9 µM and the TGI worked out at 12.8 µM.

Take `COc1c(-c2ccc(O)c(O)c2)oc2c(O)c(O)cc(O)c2c1=O`: the TGI in the experiment with BT-549 breast and in the experiment with MDA-N was more than 100 µM in each case.

Regarding `Cn1c2ccccc2c2c3[nH][nH]c(=O)c3c3c4ccccc4[nH]c3c21`, in the experiment with BT-549 breast, the GI50 is 1.59 µM and the TGI turned out to be 5.3 µM.

For the molecule `CN(C)CC(C(=O)Cc1ccccc1)c1ccccc1` (stereo not given), in the experiment with BT-549 breast, the GI50 was 3.18 µM and the TGI is 8.74 µM.

Take `Cc1[nH]c(-c2nc3ccccc3[nH]2)c(C)c1C(=O)NC(C)C1CCCCC1` (stereo not given): in the experiment on BT-549 breast, the GI50 was 10.7 µM and the TGI came to 23.2 µM.

Consider `COC(=O)/C=C1/SC(N2N=C(c3cccs3)CC2c2ccc(F)cc2)=NC1=O` (stereo not given), for which, in the experiment on BT-549 breast, the GI50 is 3.21 µM and the TGI came to 8.09 µM.

`Cc1ccc(C(SCC(N)C(=O)O)(c2ccccc2)c2ccccc2)cc1` (stereo not given): in the experiment with BT-549 breast, the GI50 was 0.145 µM and the TGI was more than 69.7 µM.

As for `O=C1Nc2ccccc2/C1=C\c1nc(C2CCN(S(=O)(=O)c3ccc(F)cc3)CC2)n2ccccc12`, in the experiment with BT-549 breast, the GI50 is 1.85 µM and the TGI was found to be 8.48 µM.

Turning to `CNS(=O)(=O)NN(C)S(=O)(=O)c1ccc2ccccc2c1`, the TGI with DMS 114 small cell lung, in the experiment with LXFL 529 NSCLC and in the experiment on DLD-1 colon was more than 100 µM in each case.

On to `O=C(Nc1cc(Cl)cc(Cl)c1)/C(Cc1nc2ccccc2[nH]c1=O)=N/NC(=O)c1ccncc1`, for which the TGI with DMS 114 small cell lung, with LXFL 529 NSCLC, with SNB-78 CNS and in the experiment on DLD-1 colon was more than 100 µM each time.

On to `CN1CCN(Cc2ccc(NC(=O)c3cncc(C#Cc4cncc5nccnc45)c3)cc2C(F)(F)F)CC1`, for which, in the experiment on BT-549 breast, the GI50 was 5.27 µM and the TGI stood at 11.2 µM.

Turning to `c1cncc(C2Nc3cccc4cccc(c34)N2)c1`, in the experiment on BT-549 breast, the GI50 is 29.5 µM and the TGI stood at 95 µM.

For `C/C(=N\NC(=S)N1CCCCCCCCCCCC1)c1ccccn1`, the results for the TGI in the experiment on BT-549 breast and with MDA-N were 1.6 µM and 1.16 µM, respectively.

As to `Cc1ccc(C2=C(c3ccc(C)cc3)C3(c4ccc(C)cc4)C4C(=O)c5ccccc5C(=O)C4C2(c2ccc(C)cc2)S3=O)cc1` (stereo not given), in the experiment on BT-549 breast, the GI50 is more than 100 µM and the TGI is more than 100 µM.

Regarding `O=C(O)CCc1c2ccc(=O)c(O)c-2oc2c(O)c(O)ccc12`, the results for the TGI in the experiment with BT-549 breast and in the experiment on MDA-N were more than 100 µM and 36.5 µM, respectively.

With `CCc1cc2ncc(CN3CCN(c4ccc(C(=O)NC)nc4)CC3)cc2[nH]c1=O`, in the experiment on BT-549 breast, the GI50 was 25.9 µM and the TGI is more than 100 µM.

Regarding `Cc1ccn2c(CCc3nnc4cc(C)ccn34)nnc2c1`, the TGI in the experiment on BT-549 breast and with MDA-N was more than 100 µM each time.

In turn, `O=c1c(Br)cc2c(-c3ccccc3)c3cc(Br)c(O)c(Br)c3oc-2c1Br` had a TGI with MDA-N of more than 100 µM.

For `CN1CCN(c2nc(NCCCNc3ccnc4cc(Cl)ccc34)c3ccccc3n2)CC1`, in the experiment on BT-549 breast, the GI50 is 4.4 µM and the TGI turned out to be 16.7 µM.

As to `C=C1C2CC(OC(C)=O)C3(C)C(c4ccoc4)OC(=O)[C@@H](O)[C@]13OC1C[C@H](OC(C)=O)C(C)(C)[C@H](CC(=O)OC)[C@]12C` (stereo not given in full), the TGI with HOP-18 NSCLC, in the experiment on DMS 114 small cell lung, with LXFL 529 NSCLC and with SNB-78 CNS was more than 100 µM throughout.

As to `CC(=O)[CH-]C(=O)c1ccccc1.CC(=O)[CH-]C(=O)c1ccccc1.Cl.[O-]c1ccccn1.[O-]c1ccccn1.[Ti+4]`, in the experiment on LXFL 529 NSCLC, the GI50 was more than 100 µM and the TGI was more than 100 µM.

Regarding `C=C(CC(=O)O)C(=O)O` (tested in a mixture with another compound), in the experiment with BT-549 breast, the GI50 is more than 50 µg/mL and the TGI is more than 50 µg/mL. In the experiment on MDA-N, the GI50 was more than 50 µg/mL and the TGI was more than 50 µg/mL.

On to `Oc1cccc(/C=N/Nc2nnc(N/N=C/c3cccc(O)c3)c3ccccc23)c1`, for which the TGI in the experiment with BT-549 breast is 44.8 µM.

In the case of `NC(N)=Nc1nc2ccc([N+](=O)[O-])cc2[nH]1`, the TGI with BT-549 breast and in the experiment on MDA-N was more than 100 µM each time.

As for `C[C@]12CC[C@H]3[C@@H](C[C@@H]4SC(Nc5ccccc5)=N[C@@]45CC(O)CC[C@]35C)[C@@H]1CCC2O` (stereo not given in full), in the experiment with BT-549 breast, the GI50 is 1.38 µM and the TGI came to 4.31 µM.
